We go through one compound from US20040058993A1, “Inhibitor for the production of TNF alpha” (AJINOMOTO CO. INC., priority 2000, published 2004).

Experiment [1] concerns male rat of SD strain. Description: D-galactosamine-induced necrosis of hepatocytes in rat, plasma AST and ALT. It counts as in vivo. To be noted: AMS 1.0 g/kg oral in 0.3% CMC 1 hour before D-galactosamine 600 mg/kg i.p., plasma after 24 hours, p<0.05. The protocol:
Action of Aminomethanesulfonic Acid (AMS) to Necrosis of Hepatocytes (Method of Experiment)
A male rat of SD strain of 6 weeks age (150 g) was introduced, subjected to a preliminary breeding by giving CRF-1 (a feed manufactured by Oriental Yeast) and water for six days, fasted for one night and used for the experiment. During the fasting, a 10% aqueous solution of glucose was freely taken by the rat for preventing the lowering of blood-sugar level. D-galactosamine (600 mg/kg) adjusted to pH 6.8 was intraperitoneally administered using a 30% physiological saline solution. After 24 hours from administration of D-galactosamine, 700 μl of blood were collected from subclavian vein under anesthetization with ether and AST (aspartate aminotransferase) and ALT (alanine aminotransferase) in plasma were measured by a Fuji Dry Chem (an automated biochemical measuring apparatus for blood manufactured by Fuji Photo-Film). One hour before the administration of D-galactosamine, AMS was orally administered as a drug to be tested using a 0.3% aqueous solution of carboxymethyl cellulose (CMC).
Group 2: AMS (1.0 g/kg)/0.3% CMC n=8.

For experiment [2], the system named is TNFα production in Kupffer cells. Briefly: LPS-induced TNFα production in rat Kupffer cells (ELISA). Particulars: LPS 10 μg/ml, AMS 0.1 to 3 mM (glycine 0.3 to 30 mM), supernatant after 4 hours, FIG. 1. It counts as cell-based. As for the experimental part: A male rat of SD strain (body weight: 200-300 g) was subjected to laparotomy under anesthetization with Nembutal, a collagenase solution was perfused from portal vein, then the liver was excised and Kupffer cells were separated by an elutriator method. The Kupffer cells were adjusted to 5×10^5 cells/ml, each 100μ/well thereof were spread on a 96-well microplate and incubation was carried out for 48 hours using E-MEM (Eagle-MEM) and 10% FCS (fetal calf serum) to conduct the experiment. LPS (lipopoly saccharide) (10 μg/ml) and aminomethanesulofonic acid (AMS) or glycine were added at the same time thereto so as to make their concentrations 0.1 to 3 mM or 0.3 to 30 mM, respectively and the amount of TNFα produced in a supernatant liquid after incubation for 4 hours was measured by an ELISA (enzyme-linked immunosorbent assay).
(In general: In an ELISA, binding on a coated surface is turned into a signal by an enzyme label.)

Take `NCS(=O)(=O)O` [aminomethanesulfonic acid]: in experiment [1] (FIG. 2), the “rise in ALT in the plasma” value is on record as “significantly inhibited”. The “rise in AST in the plasma” value in experiment [1] (FIG. 3) was “significantly inhibited”. In experiment [2], the “inhibition of the production of TNFα” value is given as “inhibited the production of TNFα in a considerably strong manner as compared with glycine”.
